# Results reported in PubChem BioAssay (NCI).
#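 48-hour exposure; five concentrations; linearly interpolated endpoints. GI50 is the concentration that inhibits growth by half. TGI marks complete inhibition of growth.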
# Tests used:
# Experiment in all cases: NCI tumour cell line growth inhibition, 48 h
# SNB-75 CNS = test system: SNB-75 CNS
# MALME-3M melanoma = test system: MALME-3M melanoma
# NCI-H460 lung = test system: NCI-H460 lung
# SN12C renal = test system: SN12C renal
# HCC-2998 colon = test system: HCC-2998 colon
# SK-OV-3 ovarian = test system: SK-OV-3 ovarian
# CAKI-1 renal = test system: CAKI-1 renal
# NCI-H226 lung = test system: NCI-H226 lung
# M19-MEL melanoma = test system: M19-MEL melanoma
# COLO 205 colon = test system: COLO 205 colon
# 786-0 renal = test system: 786-0 renal
# SF-268 CNS = test system: SF-268 CNS
# U251 CNS = test system: U251 CNS
# DLD-1 colon = test system: DLD-1 colon
# UACC-62 melanoma = test system: UACC-62 melanoma
# CCRF-CEM leukemia = test system: CCRF-CEM leukemia
# SF-295 CNS = test system: SF-295 CNS
# SW-620 colon = test system: SW-620 colon
# SR leukemia = test system: SR leukemia
# SK-MEL-5 melanoma = test system: SK-MEL-5 melanoma
# DMS 273 small cell lung = test system: DMS 273 small cell lung
# EKVX NSCLC = test system: EKVX NSCLC
# NCI-H23 lung = test system: NCI-H23 lung
# HOP-62 NSCLC = test system: HOP-62 NSCLC
# HL-60(TB) leukemia = test system: HL-60(TB) leukemia
# TK-10 renal = test system: TK-10 renal
# OVCAR-4 ovarian = test system: OVCAR-4 ovarian
# KM12 colon = test system: KM12 colon
# KM20L2 colon = test system: KM20L2 colon
# OVCAR-8 ovarian = test system: OVCAR-8 ovarian
# MOLT-4 leukemia = test system: MOLT-4 leukemia
# UACC-257 melanoma = test system: UACC-257 melanoma
# RXF-631 renal = test system: RXF-631 renal
# NCI-H522 lung = test system: NCI-H522 lung
# HT29 colon = test system: HT29 colon
# RXF 393 renal = test system: RXF 393 renal
# XF 498 CNS = test system: XF 498 CNS
# OVCAR-3 ovarian = test system: OVCAR-3 ovarian
# HCT-116 colon = test system: HCT-116 colon
# SF-539 CNS = test system: SF-539 CNS
# LXFL 529 NSCLC = test system: LXFL 529 NSCLC
# IGROV1 ovarian = test system: IGROV1 ovarian
# SNB-19 CNS = test system: SNB-19 CNS
# DMS 114 small cell lung = test system: DMS 114 small cell lung
# K-562 leukemia = test system: K-562 leukemia
# SNB-78 CNS = test system: SNB-78 CNS
# RPMI-8226 leukemia = test system: RPMI-8226 leukemia
# A498 renal = test system: A498 renal
# A549 NSCLC = test system: A549 NSCLC
# HCT-15 colon = test system: HCT-15 colon
# M14 melanoma = test system: M14 melanoma
# LOX IMVI melanoma = test system: LOX IMVI melanoma
# UO-31 renal = test system: UO-31 renal
# HOP-92 NSCLC = test system: HOP-92 NSCLC
# SK-MEL-28 melanoma = test system: SK-MEL-28 melanoma
# PC-3 prostate = test system: PC-3 prostate
# HS 578T breast = test system: HS 578T breast
# SK-MEL-2 melanoma = test system: SK-MEL-2 melanoma
# BT-549 breast = test system: BT-549 breast
# MCF7 breast = test system: MCF7 breast
# ACHN renal = test system: ACHN renal
# OVCAR-5 ovarian = test system: OVCAR-5 ovarian
# MDA-MB-231 breast = test system: MDA-MB-231 breast
# T-47D breast = test system: T-47D breast
# NCI/ADR-RES ovarian = test system: NCI/ADR-RES ovarian
# DU-145 prostate = test system: DU-145 prostate
# MDA-MB-435 = test system: MDA-MB-435
structure (smiles),measurement,setting,value
Cc1ccc(S(=O)(=O)C(CC(NC=O)S(=O)(=O)c2ccc(C)cc2)NC=O)cc1 (stereo unspecified),TGI,SNB-75 CNS,> 100 µM
same,TGI,MALME-3M melanoma,> 100 µM
same,TGI,NCI-H460 lung,> 100 µM
same,TGI,SN12C renal,> 100 µM
same,TGI,HCC-2998 colon,> 100 µM
same,TGI,SK-OV-3 ovarian,> 100 µM
same,TGI,CAKI-1 renal,> 100 µM
same,TGI,NCI-H226 lung,> 100 µM
same,TGI,M19-MEL melanoma,> 100 µM
same,TGI,COLO 205 colon,> 100 µM
same,TGI,786-0 renal,> 100 µM
same,TGI,SF-268 CNS,> 100 µM
same,TGI,U251 CNS,> 100 µM
same,TGI,DLD-1 colon,> 100 µM
same,TGI,UACC-62 melanoma,> 100 µM
same,TGI,CCRF-CEM leukemia,> 100 µM
same,TGI,SF-295 CNS,> 100 µM
same,TGI,SW-620 colon,> 100 µM
same,TGI,SR leukemia,> 100 µM
same,TGI,SK-MEL-5 melanoma,> 100 µM
same,TGI,DMS 273 small cell lung,> 100 µM
same,TGI,EKVX NSCLC,> 100 µM
same,TGI,NCI-H23 lung,> 100 µM
same,TGI,HOP-62 NSCLC,> 100 µM
same,TGI,HL-60(TB) leukemia,> 100 µM
same,TGI,TK-10 renal,> 100 µM
same,TGI,OVCAR-4 ovarian,> 100 µM
same,TGI,KM12 colon,> 100 µM
same,TGI,KM20L2 colon,> 100 µM
same,TGI,OVCAR-8 ovarian,> 100 µM
same,TGI,MOLT-4 leukemia,> 100 µM
same,TGI,UACC-257 melanoma,> 100 µM
same,TGI,RXF-631 renal,> 100 µM
same,TGI,NCI-H522 lung,> 100 µM
same,TGI,HT29 colon,> 100 µM
same,TGI,RXF 393 renal,> 100 µM
same,TGI,XF 498 CNS,> 100 µM
same,TGI,OVCAR-3 ovarian,> 100 µM
same,TGI,HCT-116 colon,> 100 µM
same,TGI,SF-539 CNS,> 100 µM
same,TGI,LXFL 529 NSCLC,> 100 µM
same,TGI,IGROV1 ovarian,> 100 µM
same,TGI,SNB-19 CNS,> 100 µM
same,TGI,DMS 114 small cell lung,> 100 µM
same,TGI,K-562 leukemia,> 100 µM
same,TGI,SNB-78 CNS,> 100 µM
same,TGI,RPMI-8226 leukemia,> 100 µM
same,TGI,A498 renal,> 100 µM
same,TGI,A549 NSCLC,> 100 µM
same,TGI,HCT-15 colon,> 100 µM
same,TGI,M14 melanoma,> 100 µM
same,TGI,LOX IMVI melanoma,> 100 µM
same,TGI,UO-31 renal,> 100 µM
same,TGI,HOP-92 NSCLC,> 100 µM
CN(C)CCONC(=O)C12CC3CC(CC(C3)C1)C2,TGI,SK-MEL-28 melanoma,> 100 µM
same,GI50,PC-3 prostate,> 100 µM
same,TGI,PC-3 prostate,> 100 µM
same,GI50,HS 578T breast,> 100 µM
same,TGI,HS 578T breast,> 100 µM
same,TGI,SNB-75 CNS,> 100 µM
same,TGI,SK-MEL-2 melanoma,> 100 µM
same,GI50,BT-549 breast,> 100 µM
same,TGI,BT-549 breast,> 100 µM
same,TGI,NCI-H460 lung,> 100 µM
same,TGI,SN12C renal,> 100 µM
same,GI50,HCC-2998 colon,> 100 µM
same,TGI,HCC-2998 colon,> 100 µM
same,TGI,SK-OV-3 ovarian,> 100 µM
same,TGI,CAKI-1 renal,> 100 µM
same,TGI,NCI-H226 lung,> 100 µM
same,TGI,M19-MEL melanoma,> 100 µM
same,TGI,COLO 205 colon,> 100 µM
same,TGI,786-0 renal,> 100 µM
same,TGI,SF-268 CNS,> 100 µM
same,TGI,U251 CNS,> 100 µM
same,TGI,DLD-1 colon,> 100 µM
same,TGI,UACC-62 melanoma,> 100 µM
same,GI50,MCF7 breast,> 100 µM
same,TGI,MCF7 breast,> 100 µM
same,TGI,CCRF-CEM leukemia,> 100 µM
same,TGI,SF-295 CNS,> 100 µM
same,TGI,ACHN renal,> 100 µM
same,GI50,SW-620 colon,> 100 µM
same,TGI,SW-620 colon,> 100 µM
same,TGI,SR leukemia,> 100 µM
same,TGI,SK-MEL-5 melanoma,> 100 µM
same,TGI,EKVX NSCLC,> 100 µM
same,TGI,NCI-H23 lung,> 100 µM
same,TGI,HOP-62 NSCLC,> 100 µM
same,TGI,HL-60(TB) leukemia,> 100 µM
same,TGI,TK-10 renal,> 100 µM
same,GI50,OVCAR-4 ovarian,> 100 µM
same,TGI,OVCAR-4 ovarian,> 100 µM
same,TGI,KM12 colon,> 100 µM
same,TGI,KM20L2 colon,> 100 µM
same,TGI,OVCAR-8 ovarian,> 100 µM
same,TGI,MOLT-4 leukemia,> 100 µM
same,TGI,UACC-257 melanoma,> 100 µM
same,TGI,RXF-631 renal,> 100 µM
same,TGI,NCI-H522 lung,> 100 µM
same,TGI,HT29 colon,> 100 µM
same,TGI,RXF 393 renal,> 100 µM
same,TGI,XF 498 CNS,> 100 µM
same,TGI,OVCAR-3 ovarian,> 100 µM
same,TGI,OVCAR-5 ovarian,> 100 µM
same,TGI,HCT-116 colon,> 100 µM
same,GI50,MDA-MB-231 breast,> 100 µM
same,TGI,MDA-MB-231 breast,> 100 µM
same,GI50,T-47D breast,> 100 µM
same,TGI,T-47D breast,> 100 µM
same,TGI,SF-539 CNS,> 100 µM
same,TGI,LXFL 529 NSCLC,> 100 µM
same,TGI,IGROV1 ovarian,> 100 µM
same,GI50,NCI/ADR-RES ovarian,> 100 µM
same,TGI,NCI/ADR-RES ovarian,> 100 µM
same,TGI,SNB-19 CNS,> 100 µM
same,TGI,DMS 114 small cell lung,> 100 µM
same,TGI,K-562 leukemia,> 100 µM
same,TGI,SNB-78 CNS,69.2 µM
same,GI50,DU-145 prostate,> 100 µM
same,TGI,DU-145 prostate,> 100 µM
same,TGI,RPMI-8226 leukemia,> 100 µM
same,TGI,A498 renal,> 100 µM
same,TGI,A549 NSCLC,> 100 µM
same,GI50,MDA-MB-435,> 100 µM
same,TGI,MDA-MB-435,> 100 µM
same,TGI,HCT-15 colon,> 100 µM
same,TGI,M14 melanoma,> 100 µM
same,TGI,LOX IMVI melanoma,> 100 µM
same,TGI,UO-31 renal,> 100 µM
same,TGI,HOP-92 NSCLC,> 100 µM
